In patent US9540323B2 (BRISTOL-MYERS SQUIBB COMPANY, priority 2012, dated 2017):

Columns and labels:
[1] = system: human platelet rich plasma (PRP); experiment: ADP induced platelet aggregation assay; details: Homo sapiens, Platelet, 5 min, read-out: PA IC50 (μM) @ 10 μM ADP, human PRP, 10 μM ADP, AUC at 5 minute
[2] = target: cloned human P2Y1 receptors (Homo sapiens (Human), UniProt P47900); experiment: Binding Assay B - Scintillation Proximity Assay (SPA) for P2Y1 binding, [33P] 2MeS-ADP; details: SPA, 0.3 nM [33P] 2MeS-ADP, Cheng-Prusoff; read-out: P2Y1 Ki (nM) using binding assay B
cloned human P2Y1 receptors, sequence (P47900 whole entry): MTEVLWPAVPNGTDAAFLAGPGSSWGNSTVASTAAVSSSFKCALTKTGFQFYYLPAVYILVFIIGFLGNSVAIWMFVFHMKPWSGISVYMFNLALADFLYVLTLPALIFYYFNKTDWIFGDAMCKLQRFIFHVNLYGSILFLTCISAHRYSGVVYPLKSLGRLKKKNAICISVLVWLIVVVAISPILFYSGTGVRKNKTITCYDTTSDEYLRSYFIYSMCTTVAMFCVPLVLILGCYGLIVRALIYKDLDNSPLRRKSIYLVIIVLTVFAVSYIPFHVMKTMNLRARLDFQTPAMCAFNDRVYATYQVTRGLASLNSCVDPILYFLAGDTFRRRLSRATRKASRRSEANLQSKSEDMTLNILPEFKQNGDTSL
Experimental: Binding Assay B—Scintillation Proximity Assay (SPA) for P2Y1 Binding
A SPA membrane binding assay was used to identify inhibitors of [^33P] […] Reactions were allowed to proceed to completion at room temperature for 1 hour followed by centrifugation of the plate for 5 min. About 40 μL of the aqueous solution was aspirated. Plates were sealed and the [^33P]

SMILES: CC1(C)CN(c2ccccc2NC(=O)Nc2nc3ccc(Cl)nc3s2)c2c(O)ccc(-c3ccc(F)cc3)c21 [Example 209, 1-(5-Chlorothiazolo[5,4-b]pyridin-2-yl)-3-(2-(4-(4-fluorophenyl)-7-hydroxy-3,3-dimethylindolin-1-yl)phenyl)urea]
- IC50 [1]: 0.23 µM
- Ki [2]: 13 nM

SMILES: CC1(C)CN(c2ccccc2NC(=O)Nc2nc3ccc(F)cc3s2)c2c(O)cc(F)c(Br)c21 [Example 67, 1-(2-(4-Bromo-5-fluoro-7-hydroxy-3,3-dimethylindolin-1-yl)phenyl)-3-(6-fluorobenzo[d]thiazol-2-yl)urea]
- IC50 [1]: 0.77 µM
- Ki [2]: 13.8 nM

SMILES: CC1(C)CN(c2ccccc2NC(=O)Nc2ccc(OC(F)(F)F)cc2)c2c(O)ccc(-c3ccncc3)c21 [Example 113, 1-(2-(7-Hydroxy-3,3-dimethyl-4-(pyridin-4-yl)indolin-1-yl)phenyl)-3-(4-(trifluoromethoxy)phenyl)urea]
- IC50 [1]: 0.35 µM
- Ki [2]: 5.9 nM

SMILES: CCOC(=O)C1(C)CN(c2ccccc2NC(=O)Nc2csc(Cl)n2)c2c(O)ccc(Cl)c21 (stereo not shown) [Example 75, Ethyl 4-chloro-1-(2-(3-(2-chlorothiazol-4-yl)ureido)phenyl)-7-hydroxy-3-methylindoline-3-carboxylate]
- IC50 [1]: 0.56 µM
- Ki [2]: 7.1 nM

SMILES: CN(C)Cc1cccc(-c2c(F)cc(O)c3c2C(C)(C)CN3c2ccccc2NC(=O)Nc2ccc(OC(F)(F)F)cc2)c1 [Example 249, 1-(2-(4-(3-((Dimethylamino)methyl)phenyl)-5-fluoro-7-hydroxy-3,3-dimethylindolin-1-yl)phenyl)-3-(4-(trifluoromethoxy)phenyl)urea]
- IC50 [1]: 0.7 µM
- Ki [2]: 12.2 nM

SMILES: CCC1(CC)CN(c2ccccc2NC(=O)Nc2csc(Cl)n2)c2c(O)ccc(F)c21 [Example 31, 1-(2-Chlorothiazol-4-yl)-3-(2-(3,3-diethyl-4-fluoro-7-hydroxyindolin-1-yl)phenyl)urea]
- IC50 [1]: 0.53 µM
- Ki [2]: 3.3 nM

SMILES: CC1(C)CN(c2ccccc2NC(=O)Nc2ccc(OC(F)(F)F)cc2)c2c(O)ccc(-c3nc4cc(Cl)ccc4o3)c21 [Example 84, 1-(2-(4-(5-Chlorobenzo[d]oxazol-2-yl)-7-hydroxy-3,3-dimethylindolin-1-yl)phenyl)-3-(4-(trifluoromethoxy)phenyl)urea]
- IC50 [1]: 0.58 µM
- Ki [2]: 16.7 nM

SMILES: CC1(C)CN(c2ccccc2NC(=O)Nc2nc3ccc(F)nc3s2)c2c(O)ccc(-c3nc4ccc(Cl)cc4o3)c21 [Example 108, 1-(2-(4-(6-Chlorobenzo[d]oxazol-2-yl)-7-hydroxy-3,3-dimethylindolin-1-yl)phenyl)-3-(5-fluorothiazolo[5,4-b]pyridin-2-yl)urea]
- IC50 [1]: 0.19 µM
- Ki [2]: 9.7 nM

SMILES: CCC1(CC)CN(c2ccccc2NC(=O)Nc2ccc(C3CCN(CC(C)(C)C)CC3)cc2)c2c(O)ccc(C#N)c21 [Example 45, 1-(2-(4-Cyano-3,3-diethyl-7-hydroxyindolin-1-yl)phenyl)-3-(4-(1-neopentylpiperidin-4-yl)phenyl)urea]
- IC50 [1]: 0.39 µM
- Ki [2]: 6.7 nM

SMILES: CC1(C)CN(c2ccccc2NC(=O)Nc2nc3c(s2)CN(CC2CC2)CC3)c2c(O)ccc(C(F)(F)F)c21 [Example 23, 1-(5-(Cyclopropylmethyl)-4,5,6,7-tetrahydrothiazolo[5,4-c]pyridin-2-yl)-3-(2-(7-hydroxy-3,3-dimethyl-4-(trifluoromethyl)indolin-1-yl)phenyl)urea]
- IC50 [1]: 1.01 µM
- Ki [2]: 10.4 nM

SMILES: CC1(C)CN(c2ccccc2NC(=O)Nc2csc(Cl)n2)c2c(O)cc(F)c(-c3ccc(F)cc3)c21 [Example 212, 1-(2-Chlorothiazol-4-yl)-3-(2-(5-fluoro-4-(4-fluorophenyl)-7-hydroxy-3,3-dimethylindolin-1-yl)phenyl)urea]
- IC50 [1]: 0.16 µM
- Ki [2]: 4.9 nM

SMILES: CC1(C)CN(c2ccccc2NC(=O)Nc2ccc(OC(F)(F)F)cc2)c2c(O)c(F)cc(-c3nc4ccc(Cl)cc4s3)c21 [Example 130, 1-(2-(4-(6-Chlorobenzo[d]thiazol-2-yl)-6-fluoro-7-hydroxy-3,3-dimethylindolin-1-yl)phenyl)-3-(4-(trifluoromethoxy)phenyl)urea]
- IC50 [1]: 1.8 µM
- Ki [2]: 93.5 nM

SMILES: CC1(C)CN(c2ccccc2NC(=O)Nc2ccc(OC(F)(F)F)cc2)c2c(O)ccc(-c3nc4c(CO)cccc4o3)c21 [Example 106, 1-(2-(7-Hydroxy-4-(4-(hydroxymethyl)benzo[d]oxazol-2-yl)-3,3-dimethylindolin-1-yl)phenyl)-3-(4-(trifluoromethoxy)phenyl) urea]
- IC50 [1]: 3.28 µM
- Ki [2]: 364 nM

SMILES: CC1(C)CN(c2ccccc2NC(=O)Nc2ccc(OC(F)(F)F)cc2)c2c(O)ccc(-c3nc4cnccc4o3)c21 [Example 96, 1-(2-(7-Hydroxy-3,3-dimethyl-4-(oxazolo[4,5-c]pyridin-2-yl)indolin-1-yl)phenyl)-3-(4-(trifluoromethoxy)phenyl)urea]
- IC50 [1]: 2.99 µM
- Ki [2]: 22.2 nM

SMILES: CC1(C)CN(c2ccccc2NC(=O)Nc2nc3ccc(Cl)nc3s2)c2c(O)cc(F)c(-c3noc(C(F)(F)F)n3)c21 [Example 257, 1-(5-Chlorothiazolo[5,4-b]pyridin-2-yl)-3-(2-(5-fluoro-7-hydroxy-3,3-dimethyl-4-(5-(trifluoromethyl)-1,2,4-oxadiazol-3-yl)indolin-1-yl)phenyl)urea]
- IC50 [1]: 0.29 µM
- Ki [2]: 86.2 nM

SMILES: CC(C)(C)c1ncc(-c2c(F)cc(O)c3c2C(C)(C)CN3c2ccccc2NC(=O)Nc2ccc(OC(F)(F)F)cc2)cn1 [Example 160, 1-(2-(4-(2-(tert-Butyl)pyrimidin-5-yl)-5-fluoro-7-hydroxy-3,3-dimethylindolin-1-yl)phenyl)-3-(4-(trifluoromethoxy)phenyl)urea]
- IC50 [1]: 0.09 µM
- Ki [2]: 13.1 nM

SMILES: CC1(C)CN(c2ccccc2NC(=O)Nc2ccc(OC(F)(F)F)cc2)c2c(O)ccc(-c3ncc(F)cn3)c21 [Example 133, 1-(2-(4-(5-Fluoropyrimidin-2-yl)-7-hydroxy-3,3-dimethylindolin-1-yl)phenyl)-3-(4-(trifluoromethoxy)phenyl)urea]
- IC50 [1]: 0.69 µM
- Ki [2]: 10.2 nM

SMILES: CC(C)(C)CN1CCCC1c1ccc(NC(=O)Nc2ccccc2N2CC(C)(C)c3c(-c4nc5ccc(Cl)cc5o4)ccc(O)c32)cc1 (stereo not shown) [Example 109, 1-(2-(4-(6-Chlorobenzo[d]oxazol-2-yl)-7-hydroxy-3,3-dimethylindolin-1-yl)phenyl)-3-(4-(1-neopentylpyrrolidin-2-yl)phenyl)urea]
- IC50 [1]: 0.13 µM
- Ki [2]: 22 nM

SMILES: CC1(C)CN(c2ccccc2NC(=O)Nc2ccc(OC(F)(F)F)cc2)c2c(O)cc(F)c(-c3nc4ccc(F)cc4s3)c21 [Example 144, 1-(2-(5-Fluoro-4-(6-fluorobenzo[d]thiazol-2-yl)-7-hydroxy-3,3-dimethylindolin-1-yl)phenyl)-3-(4-(trifluoromethoxy)phenyl)urea]
- IC50 [1]: 0.5 µM
- Ki [2]: 10 nM

SMILES: CC1(C)CN(c2cc(F)ccc2NC(=O)Nc2nc3ccc(F)cc3s2)c2c(O)ccc(C(F)(F)F)c21 [Example 64, 1-(4-Fluoro-2-(7-hydroxy-3,3-dimethyl-4-(trifluoromethyl)indolin-1-yl)phenyl)-3-(6-fluorobenzo[d]thiazol-2-yl)urea]
- IC50 [1]: 0.21 µM
- Ki [2]: 13 nM
